Experimental data as given in patent publication US20140120232A1, “ACID TASTE/ACID SMELL-REDUCING AGENT” (T. HASEGAWA CO., LTD., priority 2011, published 2014).

Assay: Sensory evaluation of Vermont drink containing the agent
Conditions: ten panels
Summary of the method: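 Tridecadienal or tridecatrienal isomers added at various concentrations to a Vermont-flavoured drink (apple-cider vinegar, honey, liquid sugar, citric acid, trisodium citrate, 100 mL total). Ten panelists assessed acid taste/acid smell and aldehyde-type off-odour, and the concentration giving the best acid taste/smell quality was selected.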

Q: For `CCCCC/C=C\C/C=C\CCC=O` [(Z,Z)-4,7-tridecadienal], which “A: number of panels, acid taste/acid smell extreme and cause irritation” value (0.005 ppt) is on record?
A: The value was 10.

Q: And the “B: number of panels, acid taste/acid smell slightly strong and slightly cause irritation” value (0.005 ppt)?
A: The value was 0.

Q: What about the “C: number of panels, acid taste/acid smell slightly unpleasant” value (0.005 ppt) of the same molecule?
A: Its value is 0.

Q: What about the “Flavor judgment: number of panels who judged acid taste/acid smell quality the highest” value (0.005 ppt) of the same molecule?
A: The value was 0.

Q: And the “N: number of panels, irritation of acid reduced to give a mild acid taste” value (0.005 ppt)?
A: Its value is 0.

Q: What about the “X: number of panels, acid taste reduced but piercing odor characteristic to aldehydes unpleasant” value (0.005 ppt) of the same molecule?
A: The value was 0.

Q: And the “A: number of panels, acid taste/acid smell extreme and cause irritation” value (0.02 ppt)?
A: Its value is 8.

Q: And the “B: number of panels, acid taste/acid smell slightly strong and slightly cause irritation” value (0.02 ppt)?
A: The value was 1.

Q: What about the “C: number of panels, acid taste/acid smell slightly unpleasant” value (0.02 ppt) of the same molecule?
A: Its value is 1.

Q: What about the “Flavor judgment: number of panels who judged acid taste/acid smell quality the highest” value (0.02 ppt) of the same molecule?
A: Its value is 0.

Q: And the “N: number of panels, irritation of acid reduced to give a mild acid taste” value (0.02 ppt)?
A: The value was 0.

Q: And the “X: number of panels, acid taste reduced but piercing odor characteristic to aldehydes unpleasant” value (0.02 ppt)?
A: Its value is 0.

Q: And the “A: number of panels, acid taste/acid smell extreme and cause irritation” value (0.1 ppt)?
A: The value was 6.

Q: What about the “B: number of panels, acid taste/acid smell slightly strong and slightly cause irritation” value (0.1 ppt) of the same molecule?
A: The value was 2.

Q: What about the “C: number of panels, acid taste/acid smell slightly unpleasant” value (0.1 ppt) of the same molecule?
A: Its value is 2.

Q: And the “Flavor judgment: number of panels who judged acid taste/acid smell quality the highest” value (0.1 ppt)?
A: The value was 0.

Q: What about the “N: number of panels, irritation of acid reduced to give a mild acid taste” value (0.1 ppt) of the same molecule?
A: Its value is 0.

Q: What about the “X: number of panels, acid taste reduced but piercing odor characteristic to aldehydes unpleasant” value (0.1 ppt) of the same molecule?
A: The value was 0.

Q: And the “A: number of panels, acid taste/acid smell extreme and cause irritation” value (0.2 ppt)?
A: The value was 5.

Q: What about the “B: number of panels, acid taste/acid smell slightly strong and slightly cause irritation” value (0.2 ppt) of the same molecule?
A: Its value is 3.

Q: And the “C: number of panels, acid taste/acid smell slightly unpleasant” value (0.2 ppt)?
A: Its value is 2.

Q: What about the “Flavor judgment: number of panels who judged acid taste/acid smell quality the highest” value (0.2 ppt) of the same molecule?
A: Its value is 0.

Q: And the “N: number of panels, irritation of acid reduced to give a mild acid taste” value (0.2 ppt)?
A: The value was 0.

Q: And the “X: number of panels, acid taste reduced but piercing odor characteristic to aldehydes unpleasant” value (0.2 ppt)?
A: The value was 0.

Q: What about the “A: number of panels, acid taste/acid smell extreme and cause irritation” value (0.5 ppt) of the same molecule?
A: Its value is 1.

Q: And the “B: number of panels, acid taste/acid smell slightly strong and slightly cause irritation” value (0.5 ppt)?
A: Its value is 1.

Q: What about the “C: number of panels, acid taste/acid smell slightly unpleasant” value (0.5 ppt) of the same molecule?
A: The value was 3.

Q: And the “Flavor judgment: number of panels who judged acid taste/acid smell quality the highest” value (0.5 ppt)?
A: The value was 1.

Q: And the “N: number of panels, irritation of acid reduced to give a mild acid taste” value (0.5 ppt)?
A: Its value is 5.

Q: And the “X: number of panels, acid taste reduced but piercing odor characteristic to aldehydes unpleasant” value (0.5 ppt)?
A: Its value is 0.

Q: And the “A: number of panels, acid taste/acid smell extreme and cause irritation” value (1 ppb)?
A: The value was 0.

Q: What about the “B: number of panels, acid taste/acid smell slightly strong and slightly cause irritation” value (1 ppb) of the same molecule?
A: Its value is 0.

Q: And the “C: number of panels, acid taste/acid smell slightly unpleasant” value (1 ppb)?
A: Its value is 3.

Q: What about the “Flavor judgment: number of panels who judged acid taste/acid smell quality the highest” value (1 ppb) of the same molecule?
A: The value was 0.

Q: And the “N: number of panels, irritation of acid reduced to give a mild acid taste” value (1 ppb)?
A: The value was 3.

Q: And the “X: number of panels, acid taste reduced but piercing odor characteristic to aldehydes unpleasant” value (1 ppb)?
A: Its value is 4.

Q: What about the “A: number of panels, acid taste/acid smell extreme and cause irritation” value (1 ppt) of the same molecule?
A: Its value is 0.

Q: And the “B: number of panels, acid taste/acid smell slightly strong and slightly cause irritation” value (1 ppt)?
A: Its value is 1.

Q: And the “C: number of panels, acid taste/acid smell slightly unpleasant” value (1 ppt)?
A: Its value is 3.

Q: And the “Flavor judgment: number of panels who judged acid taste/acid smell quality the highest” value (1 ppt)?
A: The value was 2.

Q: And the “N: number of panels, irritation of acid reduced to give a mild acid taste” value (1 ppt)?
A: Its value is 6.

Q: What about the “X: number of panels, acid taste reduced but piercing odor characteristic to aldehydes unpleasant” value (1 ppt) of the same molecule?
A: Its value is 0.

Q: What about the “A: number of panels, acid taste/acid smell extreme and cause irritation” value (5 ppt) of the same molecule?
A: Its value is 0.

Q: What about the “B: number of panels, acid taste/acid smell slightly strong and slightly cause irritation” value (5 ppt) of the same molecule?
A: Its value is 1.

Q: And the “C: number of panels, acid taste/acid smell slightly unpleasant” value (5 ppt)?
A: Its value is 2.

Q: And the “Flavor judgment: number of panels who judged acid taste/acid smell quality the highest” value (5 ppt)?
A: The value was 4.

Q: And the “N: number of panels, irritation of acid reduced to give a mild acid taste” value (5 ppt)?
A: The value was 7.

Q: What about the “X: number of panels, acid taste reduced but piercing odor characteristic to aldehydes unpleasant” value (5 ppt) of the same molecule?
A: Its value is 0.

Q: And the “A: number of panels, acid taste/acid smell extreme and cause irritation” value (10 ppb)?
A: The value was 0.

Q: What about the “B: number of panels, acid taste/acid smell slightly strong and slightly cause irritation” value (10 ppb) of the same molecule?
A: Its value is 1.

Q: And the “C: number of panels, acid taste/acid smell slightly unpleasant” value (10 ppb)?
A: Its value is 2.

Q: And the “Flavor judgment: number of panels who judged acid taste/acid smell quality the highest” value (10 ppb)?
A: The value was 0.

Q: And the “N: number of panels, irritation of acid reduced to give a mild acid taste” value (10 ppb)?
A: The value was 2.

Q: What about the “X: number of panels, acid taste reduced but piercing odor characteristic to aldehydes unpleasant” value (10 ppb) of the same molecule?
A: The value was 5.

Q: What about the “A: number of panels, acid taste/acid smell extreme and cause irritation” value (20 ppt) of the same molecule?
A: The value was 0.

Q: And the “B: number of panels, acid taste/acid smell slightly strong and slightly cause irritation” value (20 ppt)?
A: Its value is 0.

Q: What about the “C: number of panels, acid taste/acid smell slightly unpleasant” value (20 ppt) of the same molecule?
A: The value was 3.

Q: What about the “Flavor judgment: number of panels who judged acid taste/acid smell quality the highest” value (20 ppt) of the same molecule?
A: The value was 3.

Q: And the “N: number of panels, irritation of acid reduced to give a mild acid taste” value (20 ppt)?
A: Its value is 6.

Q: And the “X: number of panels, acid taste reduced but piercing odor characteristic to aldehydes unpleasant” value (20 ppt)?
A: Its value is 1.

Q: And the “A: number of panels, acid taste/acid smell extreme and cause irritation” value (50 ppb)?
A: The value was 0.

Q: What about the “B: number of panels, acid taste/acid smell slightly strong and slightly cause irritation” value (50 ppb) of the same molecule?
A: Its value is 0.

Q: What about the “C: number of panels, acid taste/acid smell slightly unpleasant” value (50 ppb) of the same molecule?
A: Its value is 1.

Q: What about the “Flavor judgment: number of panels who judged acid taste/acid smell quality the highest” value (50 ppb) of the same molecule?
A: Its value is 0.

Q: And the “N: number of panels, irritation of acid reduced to give a mild acid taste” value (50 ppb)?
A: Its value is 2.

Q: What about the “X: number of panels, acid taste reduced but piercing odor characteristic to aldehydes unpleasant” value (50 ppb) of the same molecule?
A: The value was 7.

Q: And the “A: number of panels, acid taste/acid smell extreme and cause irritation” value (100 ppt)?
A: Its value is 0.

Q: What about the “B: number of panels, acid taste/acid smell slightly strong and slightly cause irritation” value (100 ppt) of the same molecule?
A: Its value is 1.

Q: And the “C: number of panels, acid taste/acid smell slightly unpleasant” value (100 ppt)?
A: The value was 3.

Q: And the “Flavor judgment: number of panels who judged acid taste/acid smell quality the highest” value (100 ppt)?
A: The value was 0.

Q: And the “N: number of panels, irritation of acid reduced to give a mild acid taste” value (100 ppt)?
A: Its value is 4.

Q: What about the “X: number of panels, acid taste reduced but piercing odor characteristic to aldehydes unpleasant” value (100 ppt) of the same molecule?
A: Its value is 2.

Q: And the “A: number of panels, acid taste/acid smell extreme and cause irritation” value (500 ppt)?
A: Its value is 0.

Q: And the “B: number of panels, acid taste/acid smell slightly strong and slightly cause irritation” value (500 ppt)?
A: Its value is 2.

Q: What about the “C: number of panels, acid taste/acid smell slightly unpleasant” value (500 ppt) of the same molecule?
A: Its value is 2.

Q: What about the “Flavor judgment: number of panels who judged acid taste/acid smell quality the highest” value (500 ppt) of the same molecule?
A: Its value is 0.

Q: What about the “N: number of panels, irritation of acid reduced to give a mild acid taste” value (500 ppt) of the same molecule?
A: Its value is 4.

Q: What about the “X: number of panels, acid taste reduced but piercing odor characteristic to aldehydes unpleasant” value (500 ppt) of the same molecule?
A: The value was 2.
